Measured values from patent publication US20120309709A1, “Ion-Channel Regulator Compositions and Methods of Using Same” (priority 2007, published 2012).
Where “and” joins values, the source holds several entries; their conditions need not be identical. Equal values may be shown once. Read-outs that look alike come from different tables or passages of the source.

How the values were obtained:
[1] = system: cells in the synovial tissue; assay: Trypan blue exclusion test on synovial tissue; conditions: Examples 1-4
Protocol: Multiple samples of synovial tissue, each approximately 20 mg, were obtained from a person with osteoarthritis (grade IV, Kellgren-Lawrence scale).

[2] = system: MMPs produced by synovial tissue in response to IL-1β; conditions: for activity of the MMPs, % of that measured in tissues not exposed to the regulator: IL-1β alone = 100%
[3] = Example 1, person, regulator 0.01 mg/mL
[4] = Example 1, person, regulator 0.05 mg/mL
[5] = Example 2, person, regulator 0.01 mg/mL
[6] = Example 2, person, regulator 0.05 mg/mL
[7] = Example 3, person, regulator 0.01 mg/mL
[8] = Example 3, person, regulator 0.05 mg/mL
[9] = Example 4, person, regulator 0.01 mg/mL
[10] = Example 4, person, regulator 0.05 mg/mL
[11] = Example 5, person, single regulator 0.1 mg/mL
[12] = Example 6, person, single regulator 0.1 mg/mL
[13] = Example 7, person, single regulator 0.1 mg/mL

| SMILES | concentration at which death of cells in the synovial tissue was observed [1] | activity of the MMPs, % of that measured in tissues not exposed to the regulator [2, 3] [%] | activity of the MMPs, % of that measured in tissues not exposed to the regulator [2, 4] [%] | activity of the MMPs, % of that measured in tissues not exposed to the regulator [2, 5] [%] | activity of the MMPs, % of that measured in tissues not exposed to the regulator [2, 6] [%] | activity of the MMPs, % of that measured in tissues not exposed to the regulator [2, 7] [%] | activity of the MMPs, % of that measured in tissues not exposed to the regulator [2, 8] [%] | activity of the MMPs, % of that measured in tissues not exposed to the regulator [2, 9] [%] | activity of the MMPs, % of that measured in tissues not exposed to the regulator [2, 10] | activity of the MMPs, % of that measured in tissues not exposed to the regulator [2, 11] [%] | activity of the MMPs, % of that measured in tissues not exposed to the regulator [2, 12] [%] | activity of the MMPs, % of that measured in tissues not exposed to the regulator [2, 13] [%] | effect on blocking MMP activity of further increasing the concentration ([2]; Examples 1-4, concentration increased from 0.05 mg/mL up to 0.1 mg/mL, compared with level at 0.05 mg/mL) |
| --- | --- | --- | --- | --- | --- | --- | --- | --- | --- | --- | --- | --- | --- |
| COc1ccc(CCN(C)CCCC(C#N)(c2ccc(OC)c(OC)c2)C(C)C)cc1OC (stereo not shown) [verapamil] | above 0.1 mg/mL | 38 | 18.9 | 37.2 | 21.5 | 37 | 23.2 | 35 | 13.6% and 13.1% | 16 | 21.9 | 17.4 |  |
| COc1ccc([C@@H]2Sc3ccccc3N(CCN(C)C)C(=O)[C@@H]2OC(C)=O)cc1 [diltiazem] | above 0.1 mg/mL | 97 | 27.1 | 99 | 35.7 | 97 | 24.7 | 98.1 | 22.6% | 24.8 | 29.8 | 34.3 | no further effect |
